This note sets out measurements from paper PMC6941952, “A homogeneous bioluminescent immunoassay to probe cellular signaling pathway regulation” (Communications Biology, 2020).

Common to all, as to parameters: species or system human
For one experiment, the system named is AKT Phospho-Ser473. Description: NanoBiT p-AKT cell-based immunoassay in MCF-7 cells. Conditions: for P-AKT (% compared to no LY294002) / P-AKT, Raw data / P-AKT, Subtract reagent background: single replicates. Here is the method:
(§1) Prior to NanoBiT Cell-Based Immunoassay, 50,000 cells were seeded in 160 µl of complete growth media per well of a 96-well plate and incubated overnight. The cells were checked under microscope and it was determined that 50,000 cells per well in 96-well plate is under 90% confluency for all cells tested. If necessary, the cell culture media were replaced with serum-free media after the cells were stably adherent on the plate and incubated overnight. To treat cells with activators or inhibitors, medium was changed to 30 µl of medium containing inhibitors. If activation of a specific pathway is needed, the cells were stimulated with 10 µl of medium containing activators. To lyse the cells, 10 µl of lysis buffer containing 0.1% digitonin diluted in 1X immunoassay buffer with protease and phosphatase inhibitors was added and the plates were mixed vigorously for 20 min. Then, 50 µl of an antibody mix containing two primary antibodies against the target protein and NanoBiT detecting antibodies (0.3 µl each per well), diluted in 1X immunoassay buffer was added to the lysates. The plates were incubated at 23 °C for 90 min, followed by the addition of 25 µl of Nano-Glo® reagent consisting of Nano-Glo® Luciferase Assay Substrate mixed with 1X immunoassay buffer. Luminescence was measured using a plate-reading luminometer.
(§2) Single dose or dose response inhibitor treatments were performed prior to activation of the pathways as follows. For IκBα, the cells were treated in 30 µl medium with IKK16 or MG132 for 60 min before the addition of 10 µl of DMEM containing appropriate concentration of TNFα. To measure phosphorylation of AKT or STAT3, the corresponding NanoBiT immunoassays were developed with MCF-7 or A431 cells, respectively, according the same scheme used to develop the IκBα assay using the primary antibodies for AKT and STAT3 described in the reagents section. For the AKT assay, MCF-7 cells were incubated overnight in phenol-red free DMEM medium (Gibco #21063-029) without serum. Treatment with LY294002 was performed in 30 µl medium and cells were incubated for 60 min before the addition of 1 µM Insulin. To measure STAT3 phosphorylation, A431 cells were incubated overnight in DMEM medium without serum. […] After addition of the stimulators, the cells were incubated for additional times as follows. IκBα phosphorylation and degradation analyses required both time courses and single time points as described in figures. […] The NanoBiT immunoassay protocol was followed as described above.
(§3) All 96-well assay plates were read using a GloMax® 96 Microplate Luminometer from Promega. The instrument was set to 0.5 s integration time. In order to obtain net change of signal, the reagent background values (signal from the well containing all reagent except primary antibodies) were subtracted from the sample values. To plot and analyze the data, Microsoft Excel and GraphPad Prism® Software were used. IC50 values were determined by using a nonlinear regression fit to a sigmoidal dose response (variable slope).

Another experiment has as its system total AKT. Put plainly: NanoBiT cell-based immunoassay, total AKT in MCF-7 cells. As to conditions: for total level of AKT protein: MCF-7 cells, insulin 1 µM 10 min, LY294002 20 µM 1 h. How it is done:
as §1, §2, §3

For the next experiment, the system named is total STAT3. Description: NanoBiT cell-based immunoassay, total STAT3 in A431 cells. Conditions: substance alone. Here is the method: as §1, with “The cells were checked under microscope and it was determined that 50,000 cells per well in 96-well plate is under 90% confluency for all cells tested.” left out
Single dose or dose response inhibitor treatments were performed prior to activation of the pathways as follows. For IκBα, the cells were treated in 30 µl medium with IKK16 or MG132 for 60 min before the addition of 10 µl of DMEM containing appropriate concentration of TNFα. To measure phosphorylation of AKT or STAT3, the corresponding NanoBiT immunoassays were developed with MCF-7 or A431 cells, respectively, according the same scheme used to develop the IκBα assay using the primary antibodies for AKT and STAT3 described in the reagents section. […] Treatment with LY294002 was performed in 30 µl medium and cells were incubated for 60 min before the addition of 1 µM Insulin. […]
All 96-well assay plates were read using a GloMax® 96 Microplate Luminometer from Promega. […] IC50 values were determined by using a nonlinear regression fit to a sigmoidal dose response (variable slope).

The subject of another experiment is STAT3 Phospho-Tyr705. Description: NanoBiT pSTAT3 cell-based immunoassay in A431 cells. As to conditions: substance alone. In a few lines:
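Cells were lysed in 0.1% digitonin buffer, then target protein was detected with two primary antibodies plus NanoBiT detection antibodies (90 min, 23 °C), read as luminescence minus reagent background. For pSTAT3, A431 cells were serum-starved overnight before inhibitor and stimulator. For IκBα, MCF-7 cells got inhibitor for 60 min before TNFα. IC50 came from variable-slope sigmoidal fits.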

[1] abbreviates: LY294002 0.00190735 uM, Insulin 1 uM.
The mark [2] stands for this setting: LY294002 0.00762939 uM, Insulin 1 uM.
[3] abbreviates: LY294002 0.0305176 uM, Insulin 1 uM.
The mark [4] stands for this setting: LY294002 0.12207 uM, Insulin 1 uM.
Setting [5] is: LY294002 0.488281 uM, Insulin 1 uM.
Setting [6] is: LY294002 1.95312 uM, Insulin 1 uM.
The mark [7] stands for this setting: LY294002 7.8125 uM, Insulin 1 uM.
The mark [8] stands for this setting: LY294002 31.25 uM, Insulin 1 uM.
The mark [9] stands for this setting: background subtracted, average of replicates.
The mark [10] stands for this setting: substance alone, background subtracted, average of replicates.
The mark [11] stands for this setting: substance alone, single replicates.

“And” between values parts separate entries of the source, which are not always exact repeats. Equal entries are not always repeated.

As to `O=c1cc(N2CCOCC2)oc2c(-c3ccccc3)cccc12` [LY294002, 2-(4-morpholinyl)-8-phenyl-4H-1-benzopyran-4-one], the IC50 in the experiment on AKT Phospho-Ser473 (Homo sapiens, MCF7, MCF-7 cells, pretreated 1 h, insulin 1 µM 10 min, read-out: IC50, inhibition of AKT phosphorylation after insulin treatment) amounted to 8.89 µM. In addition, the “P-AKT (% compared to no LY294002), Average” value with AKT Phospho-Ser473 (LY294002 0.00190735 uM, Insulin 1 uM, average of replicates) is reported as 98.2%; with AKT Phospho-Ser473 (LY294002 0.00762939 uM, Insulin 1 uM, average of replicates), 100.2%; in the experiment on AKT Phospho-Ser473 (LY294002 0.0305176 uM, Insulin 1 uM, average of replicates) it was 99.6%; with AKT Phospho-Ser473 (LY294002 0.12207 uM, Insulin 1 uM, average of replicates), 97.0%; with AKT Phospho-Ser473 (LY294002 0.488281 uM, Insulin 1 uM, average of replicates), 97.0%; in the experiment with AKT Phospho-Ser473 (LY294002 1.95312 uM, Insulin 1 uM, average of replicates), 89.9%. For the same molecule, the “P-AKT (% compared to no LY294002), Average” value with AKT Phospho-Ser473 (LY294002 7.8125 uM, Insulin 1 uM, average of replicates) was 57.7%; with AKT Phospho-Ser473 (LY294002 31.25 uM, Insulin 1 uM, average of replicates) it was 11.5%; with AKT Phospho-Ser473 (LY294002 500 uM, Insulin 1 uM, average of replicates), 1.5%; in the experiment on AKT Phospho-Ser473 (LY294002 […], Insulin 1 uM, average of replicates) it was 1.8%. For the same molecule, the “P-AKT (% compared to no LY294002)” value in the experiment with AKT Phospho-Ser473 (setting [1]) is 99.8% and 97.4% and 97.5%; in the experiment on AKT Phospho-Ser473 (setting [2]) it was 101.9% and 99.8% and 98.9%; in the experiment with AKT Phospho-Ser473 (setting [3]) it was 100.5% and 98.7% and 99.6%; with AKT Phospho-Ser473 (setting [4]), 98.2% and 96.0% and 96.8%; with AKT Phospho-Ser473 (setting [5]), 100.1% and 96.2% and 94.5%; in the experiment on AKT Phospho-Ser473 (setting [6]), 90.1% and 89.4%. The “P-AKT (% compared to no LY294002)” value in the experiment with AKT Phospho-Ser473 (setting [7]) was 58.2% and 58.0% and 57.0%; with AKT Phospho-Ser473 (setting [8]) it was 11.5% and 11.7% and 11.4%; in the experiment with AKT Phospho-Ser473 (LY294002 500 uM, Insulin 1 uM) it was 1.5% and 1.4% and 1.6%. Moreover, the “P-AKT, Raw data” value with AKT Phospho-Ser473 (setting [1]) was 2596000 and 2655000 and 2614000; in the experiment with AKT Phospho-Ser473 (setting [2]), 2632000 and 2707000 and 2673000; in the experiment on AKT Phospho-Ser473 (setting [3]), 2646000 and 2668000 and 2645000; in the experiment with AKT Phospho-Ser473 (setting [4]), 2577000 and 2614000 and 2578000; in the experiment with AKT Phospho-Ser473 (setting [5]) it was 2521000 and 2661000 and 2582000; in the experiment with AKT Phospho-Ser473 (setting [6]), 2390000 and 2409000 and 2425000. Moreover, the “P-AKT, Raw data” value in the experiment on AKT Phospho-Ser473 (setting [7]) is 1581000 and 1612000 and 1617000; in the experiment on AKT Phospho-Ser473 (setting [8]), 439900 and 442300 and 448200; in the experiment with AKT Phospho-Ser473 (LY294002 500 uM, Insulin 1 uM) it was 166500 and 165600 and 161400. In addition, the “P-AKT, Subtract reagent background” value was 2495800 and 2454800 and 2436800 with AKT Phospho-Ser473 (setting [1]); 2548800 and 2514800 and 2473800 in the experiment with AKT Phospho-Ser473 (setting [2]); 2511750 and 2488750 and 2489750 in the experiment on AKT Phospho-Ser473 (setting [3]); 2456500 and 2420500 and 2419500 in the experiment with AKT Phospho-Ser473 (setting [4]); 2503600 and 2424600 and 2363600 in the experiment on AKT Phospho-Ser473 (setting [5]); 2253650 and 2269650 and 2234650 in the experiment on AKT Phospho-Ser473 (setting [6]). Also, the “P-AKT, Subtract reagent background” value with AKT Phospho-Ser473 (setting [7]) was 1455800 and 1460800 and 1424800; in the experiment on AKT Phospho-Ser473 (setting [8]), 288200 and 294100 and 285800; in the experiment with AKT Phospho-Ser473 (LY294002 500 uM, Insulin 1 uM) it was 38600 and 34400 and 39500. Moreover, the “insulin-induced increase in AKT phosphorylation” value with AKT Phospho-Ser473 (MCF-7 cells, 20 µM 1 h pretreatment, insulin 1 µM 10 min) is reported as “suppressed”. For the same molecule, the “total level of AKT protein” value in the experiment on total AKT is listed as “stayed constant”.
Turning to IL-6, in the experiment with total STAT3 (setting [9]), the “Total STAT3, Average” value was 1196983. Further, in the experiment on total STAT3 (single replicates), the “Total Stat3, Raw data” value was 1090000 and 1448000; the “Total Stat3, Subtract reagent background” value is 1345317 and 987317. The “P-STAT3, Average” value in the experiment on STAT3 Phospho-Tyr705 (setting [9]) turned out to be 418850. Further, in the experiment with STAT3 Phospho-Tyr705 (single replicates), the “P-STAT3 Raw data” value was 458600 and 528900 and 577100; the “P-STAT3 Subtract reagent background” value is 355917 and 426217 and 474417.
Consider “insulin: Insulin (#I-0516) from Sigma-Aldrich, AKT pathway stimulator”, for which, in the experiment on AKT Phospho-Ser473 (MCF-7 cells, insulin 1 µM 10 min), the “AKT phosphorylation over the level in non-treated cells” value is “more than 20 fold”. Further, in the experiment on AKT Phospho-Ser473 (setting [10]), the “P-AKT, Average” value turned out to be 2201625. In addition, in the experiment on AKT Phospho-Ser473 (substance alone), the “P-AKT, Raw data” value was 2263000 and 2421000 and 2357000 and 2406000; the “P-AKT, Subtract reagent background” value was 2102700 and 2260800 and 2195400 and 2247600. The “total level of AKT protein” value in the experiment on total AKT was “stayed constant”. The “Total AKT, Average” value with total AKT (setting [10]) was 108225. Moreover, in the experiment with total AKT (setting [11]), the “Total AKT, Raw data” value is 265700 and 270200 and 257000 and 278000; the “Total AKT, Subtract reagent background” value is 121700 and 104800 and 109800 and 96600.
